# Tests used:
# Format in all cases: cell-based
# HL-60 = experiment: CellTiter-Glo luminescent cell viability assay (ATP quantification), HL-60; conditions: acute promyelocytic leukemia cells, 72 h treatment, viable cells by ATP luminescence
# Procedure: (§1) Influence of the test compounds on viability (proliferation) of cell lines used was investigated in concentration range 0-100 μmol·l^−1.
# (§2) Suspension cell line HL-60 is a permanent in vitro culture of acute promyelocytic leukemia. HL-60 cell line was cultivated in RPMI 1640 medium (Sigma-Aldrich, see above) with addition of 2 mmol·l^−1 glutamine (Invitrogen, see above), 10% fetal bovine serum (FBS, Sigma-Aldrich, see above), 100 IU/ml peniciline, 100 μg/ml streptomycine (Sigma-Aldrich, see above). Passaging was performed 2-3× a week. Population doubling time of HL-60 cell line was 23 h under the cultivation conditions used.
# (§3) In order to test the sensitivity of the cell lines towards the studied helquats, cytotoxity test for cell viability assessment based on ATP quantification in cell lysates was used (CellTiter-Glo® Luminescent Cell Viability Assay, Promega, cat. no. G7571). In this test, ATP in cell lysates is detected using luciferase reaction. Luminescence intensity correlates with the ATP level and thus with quantity of metabolically active (viable) cells. IC50 value serves as the output, that is the concentration of the test compound which leads to 50% reduction in number of viable cells as compared to control, untreated population. To this end, IC50 value reflects efficiency of the test compound with regard to the given cell line.
# (§4) Cells in the exponential growth phase were seeded into a 96-well microtiter plate were plated at 3000 cells per well. Each well contained 90 μl of cell suspension. The next day, 10 μl of 10× concentrated test compound solutions were added. The effect of helquats was investigated in concentration range 1 to 100 μmol·l^−1 (e.g. 1; 2.5; 5; 7.5; 10; 15; 25; 50 and 100 μmol·l^−1). Apart from the section containing the concentration series of the test compound, each well contained 2 control columns, the first with pure medium (so called blank) and the second with cells in medium without the test compounds (control). Into wells containing controls and blanks, volume of solvent (water) equal to the volume of added compound solutions was added. After 72 h of incubation with the test compounds viability was determined according to the manufacturer's instructions. In short: microtiter well plate was left 30 min to reach the room temperature after it has been removed from the incubator. Then, into each well, 100 μl of the prepared detection agent was added. Next, the well plate was shaken for 2 min to complete the full lysis. Next, after the well had been left in the dark for 15 min, the luminescence was measured in each well using luminometer (Tecan Genios, Austria).
# (§5) IC50 value represents concentration of the test compound, which leads to 50% reduction of viable cells (inhibition of cell growth) after 72 h of the treatment. Each helquat concentration was tested in triplicates in a IC50 quantification and at least 3 independent IC50 quantification experiments were performed. IC50 values over 100 μmol·l^−1 were obtained by extrapolation of data measured in concentration range 0-100 μmol·l^−1 for the given helquat.
# HeLa = experiment: CellTiter-Glo luminescent cell viability assay (ATP quantification), HeLa; conditions: cervical cancer cells, 72 h treatment, viable cells by ATP luminescence
# Procedure: as §1
# Adherent cell line HeLa is a permanent in vitro culture derived from cervical cancer. HeLa cell line was cultivated in RPMI 1640 medium (Dutch modification) (Sigma-Aldrich, cat. no. R7638) with addition of 2 mmol·l^−1 glutamine (Invitrogen, see above), 10% fetal bovine serum (FBS, Sigma-Aldrich, see above), 100 IU/ml peniciline, 100 μg/ml streptomycine (Sigma-Aldrich, see above). Passaging was performed twice a week. After washing of cells with sterile PBS the cells were released by 0.25% trypsin/EDTA (Sigma-Aldrich, cat. no. T4049) at 37° C. for 2 minutes. The trypsin was inactivated by addition of 2 volumes of complete medium, cells were then centrifuged (250×g, 5 min), the cell pellet was resuspended, and transferred in the amount needed into a new cultivation bottle with fresh medium. Population doubling time of […] cell line was 25 h under the cultivation conditions used.
# as §3, §4, §5
# NHDF-Ad = experiment: CellTiter-Glo luminescent cell viability assay (ATP quantification), NHDF-Ad normal cells; conditions: normal human dermal fibroblasts, 72 h treatment
# Text: as §1
# Normal human dermal fibroblasts were cultivated without antibiotics in basal medium for fibroblasts (ATCC/LGC Standards, cat. no. PCS-201-030) with added “Fibroblast Growth Kit-Low serum” (ATCC/LGC Standards, cat. no. PCS-201-041) containing 2% FBS, L-glutamine, hydrocortisone, ascorbic acid, rh FGF beta, rh insulin. When 90% confluency was reached the fibroblasts were washed with sterile PBS (5 ml) and dissociated by addition of 0.25% solution of trypsin/EDTA (2 ml; 2 min; 37° C.). After that 5 ml of cultivation medium for fibroblasts was added and the cells were centrifuged (180×g, 7 min), the cell pellet was resuspended, and transferred in the amount needed into a new cultivation bottle with fresh medium. The same cell release procedure was applied when the cells were to be used in experiments. The cells were used in experiments between the 3rd and the 15th passage after defreeezing. Population doubling time of NHDF-Ad cell line was 33 h under the cultivation conditions used.
# as §3, §4, §5
# LoVo = experiment: CellTiter-Glo luminescent cell viability assay (ATP quantification), LoVo; conditions: colorectal carcinoma cells, 72 h treatment, viable cells by ATP luminescence, class symbols
# Procedure: as §1
# Adherent cell line LoVo is a permanent in vitro culture derived from tissue of a patient with colorectal carcinoma. LoVo cell line was cultivated in DMEM medium (Sigma-Aldrich, cat. no. D8437) with addition of 2 mmol·l^−1 glutamine (Invitrogen, see above), 10% fetal bovine serum (FBS, Sigma-Aldrich, see above), 100 IU/ml peniciline, 100 μg/ml streptomycine (Sigma-Aldrich, see above). Passaging was performed twice a week. After washing of cells with sterile PBS, the cells were released by 0.25% trypsin/EDTA (Sigma-Aldrich, see above) at 37° C. for 2 minutes. The trypsin was inactivated by addition of 2 volumes of complete medium, cells were then centrifuged (250×g, 5 min), resuspended, and transferred in the amount needed into a new cultivation bottle with fresh medium. Population doubling time of LoVo cell line was 39 h under the cultivation conditions used.
# as §3, §4, §5
# MOLT-4 = experiment: CellTiter-Glo luminescent cell viability assay (ATP quantification), MOLT-4; conditions: acute lymfoblastic leukemia cells, 72 h treatment, viable cells by ATP luminescence
# Procedure: as §1
# as §2, with “line MOLT-4” for “line HL-60”, “acute lymfoblastic” for “acute promyelocytic”, “leukemia. Linie MOLT-4” for “leukemia. HL-60”, “2 mmol” for “2 mmol·l^−1”, “of […]” for “of HL-60”, “was 25” for “was 23”
# as §3, §4, §5
# [1] = viable cells by ATP luminescence, class symbols
SMILES,IC50 (HL-60),IC50 (HeLa),IC50 (NHDF-Ad; [1]),IC50 (LoVo),IC50 (MOLT-4),"IC50 (HL-60; Homo sapiens, HL-60)","IC50 (HeLa; Homo sapiens, HeLa)","IC50 (NHDF-Ad; Fibroblast, numeric bound, values over 100 obtained by extrapolation of data measured at 0-100 μmol·l−1)","IC50 (LoVo; Homo sapiens, LoVo)","IC50 (MOLT-4; Homo sapiens, MOLT-4)"
"Cc1c(C)c2c(c3c1CC[n+]1ccc(/C=C/c4ccc(N(C)C)cc4)cc1-3)-c1c3ccccc3cc[n+]1CC2 [(M)-1, (M)-(E)-13-(4-(dimethylamino)styryl)-6,7-dimethyl-4,5,8,9-tetrahydroiso-quinolino[1,2-a]pyrido[1,2-k][2,9]phenanthroline-3,10-diium trifluoromethanesulfonate]",< 10 µM,< 10 µM,51 to 150 µM,11 to 50 µM,< 10 µM,–,–,–,–,–
"COc1ccc(/C=C/c2cc[n+]3c(c2)-c2c(c(C)c(C)c4c2-c2c5ccccc5cc[n+]2CC4)CC3)cc1 [(M)-6, (M)-(E)-13-(4-methoxystyryl)-6,7-dimethyl-4,5,8,9-tetrahydroisoquinolino[1,2-a]pyrido[1,2-k][2,9]phenanthroline-3,10-diium trifluoromethanesulfonate]",–,–,–,–,–,11 to 50 µM,11 to 50 µM,> 150 µM,11 to 50 µM,11 to 50 µM
"COc1ccc2cc(/C=C/c3cc[n+]4c(c3)-c3c(c(C)c(C)c5c3-c3c6ccccc6cc[n+]3CC5)CC4)ccc2c1 [(M)-7, (M)-(E)-13-(2-(6-methoxynaphthalene-2-yl)vinyl)-6,7-dimethyl-4,5,8,9-tetrahydroisoquinolino[1,2-a]pyrido[1,2-k][2,9]phenanthroline-3,10-diium trifluoromethanesulfonate]",< 10 µM,< 10 µM,51 to 150 µM,11 to 50 µM,< 10 µM,–,–,–,–,–

# Reference: patent publication US9340543B2, “Helquat derivatives, preparation thereof, and use thereof as medicaments” (USTAV ORGANICKE CHEMIE A BIOCHEMIE AKADEMIE VED CR, V.V.I., priority 2013, dated 2016)
